The results in this text go back to ChEMBL document CHEMBL1201862, “PubChem BioAssay data set” (2004).

Test systems include 786-0; A549; CCRF-CEM; COLO 205; HL-60; LOX IMVI; OVCAR-3; OVCAR-4; OVCAR-8; RPMI-8226; RXF 393; SF-268; SF-295; SK-OV-3; SNB-19; TK-10; UACC-62; HOP-92.
Holding throughout (assay): inhibition of tumour cell growth, NCI panel, 48 h

Structures are written as SMILES.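 Exposure lasted 48 hours, with cells grown in 96-well plates and compounds tested at five concentrations. Abbreviation: GI50, concentration required for 50% inhibition of growth.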 Calls of active or inactive are those of the source. Rule as the data show it: active = GI50 up to about 1.1 µM and inactive = higher.

Turning to `Cn1cc(-c2ccc3c4ccccc4n(C)c3c2)c2ccccc21`, the GI50 in the assay with 786-0 was > 100 µM (inactive); with A549, > 100 µM (inactive); with CCRF-CEM, > 100 µM (inactive); in the assay on COLO 205 it was > 100 µM (inactive); in the assay on HL-60, 75 µM (inactive); in the assay with LOX IMVI, > 100 µM (inactive). Besides, the GI50 in the assay with OVCAR-3, with OVCAR-4, in the assay on OVCAR-8, in the assay with RPMI-8226, in the assay with RXF 393 and in the assay on SF-268 was > 100 µM (inactive) each time. Besides, the GI50 in the assay with SF-295 was 94.4 µM (inactive); with SK-OV-3 it was > 100 µM (inactive); in the assay on SNB-19 it was > 100 µM (inactive); in the assay on TK-10 it was > 100 µM (inactive); with UACC-62, > 100 µM (inactive).
`COc1ccc(/C=N/C23CC4CC(CC(C4)C2)C3)cc1`: the GI50 with 786-0 is > 100 µM (inactive); in the assay with A549, > 100 µM (inactive); with CCRF-CEM, > 100 µM (inactive); with COLO 205, > 10 µM (inactive); with HL-60 it was > 100 µM (inactive); in the assay on LOX IMVI, > 100 µM (inactive). Moreover, the GI50 in the assay on OVCAR-3, in the assay with OVCAR-4, with OVCAR-8, in the assay with RPMI-8226, in the assay with RXF 393 and in the assay on SF-268 was > 100 µM (inactive) throughout. Further, the GI50 with SF-295, in the assay with SK-OV-3, in the assay with SNB-19, in the assay with TK-10 and in the assay with UACC-62 was > 100 µM (inactive) each time.
`CCCCNC(=O)OCC(COc1ccccc1OC)OC(=O)NCCCC` (configuration not stated): the GI50 in the assay with 786-0, with A549, with CCRF-CEM, with COLO 205, with HL-60 and with LOX IMVI was > 100 µM (inactive) each time. The GI50 in the assay with OVCAR-3 was > 100 µM (inactive); with OVCAR-4, > 100 µM (inactive); in the assay with OVCAR-8 it was > 100 µM (inactive); with RPMI-8226, 95.9 µM (inactive); in the assay on RXF 393, > 100 µM (inactive); in the assay with SF-268 it was > 100 µM (inactive). The GI50 was > 100 µM (inactive) in the assay with SF-295; > 100 µM (inactive) in the assay with SK-OV-3; > 100 µM (inactive) in the assay with SNB-19; > 100 µM (inactive) with TK-10; 89.9 µM (inactive) in the assay on UACC-62.
Turning to `COC(OC)c1cccc2c1C(=O)CCC1(O)c3ccccc3C1C2` (configuration not stated), the GI50 is > 100 µM (inactive) in the assay on 786-0; > 100 µM (inactive) in the assay with A549; 44.9 µM (inactive) in the assay with CCRF-CEM; > 100 µM (inactive) in the assay on COLO 205; 35.2 µM (inactive) in the assay on HL-60; > 100 µM (inactive) with LOX IMVI. In addition, the GI50 with OVCAR-3 was 7.52 µM (inactive); in the assay with OVCAR-4, > 100 µM (inactive); in the assay on OVCAR-8 it was > 100 µM (inactive); in the assay on RPMI-8226, 12.2 µM (inactive); with SF-268, > 100 µM (inactive); with SF-295, 42.1 µM (inactive). The GI50 with SK-OV-3, in the assay on SNB-19, in the assay with TK-10 and in the assay on UACC-62 was > 100 µM (inactive) in each case.
With `NC(CCc1ncc(C(=O)O)s1)C(=O)O` (configuration not stated), the GI50 in the assay with 786-0, in the assay with A549, with CCRF-CEM, with COLO 205, with HOP-92 and with LOX IMVI was > 100 µM (inactive) in each case. Also, the GI50 with OVCAR-3, in the assay with OVCAR-8, in the assay with RPMI-8226, with RXF 393, in the assay on SF-295 and in the assay on SK-OV-3 was > 100 µM (inactive) in each case. The GI50 with SNB-19 is > 10 µM (inactive); with TK-10, > 100 µM (inactive); in the assay with UACC-62, > 100 µM (inactive).
For the molecule `O=C(/C(=N/Nc1ccccc1)c1ccc([N+](=O)[O-])cc1)c1ccc([N+](=O)[O-])cc1`, the GI50 was > 100 µM (inactive) with 786-0; > 100 µM (inactive) in the assay with A549; > 100 µM (inactive) with COLO 205; 46.2 µM (inactive) with HOP-92; > 100 µM (inactive) in the assay on OVCAR-3; > 100 µM (inactive) in the assay with OVCAR-4. For the same molecule, the GI50 was > 100 µM (inactive) in the assay on OVCAR-8; 93.3 µM (inactive) with RPMI-8226; > 100 µM (inactive) with RXF 393; 32.1 µM (inactive) in the assay with SF-295; > 100 µM (inactive) with SK-OV-3; > 100 µM (inactive) in the assay on SNB-19. Besides, the GI50 with TK-10 and in the assay on UACC-62 was > 100 µM (inactive) in each case.
For the molecule `CCCCC#COS(=O)(=O)c1ccc(C)cc1`, the GI50 with 786-0 was > 100 µM (inactive); in the assay on A549, 44.9 µM (inactive); in the assay with CCRF-CEM it was 30.5 µM (inactive); in the assay with COLO 205 it was > 100 µM (inactive); in the assay with HL-60 it was > 100 µM (inactive); in the assay with LOX IMVI it was > 100 µM (inactive). In addition, the GI50 with OVCAR-3 is > 100 µM (inactive); in the assay on OVCAR-4, 65.9 µM (inactive); in the assay with OVCAR-8 it was > 100 µM (inactive); with RPMI-8226, 46.2 µM (inactive); in the assay with SF-268 it was > 100 µM (inactive); in the assay with SF-295, > 100 µM (inactive). Also, the GI50 in the assay with SK-OV-3 was 88.7 µM (inactive); with SNB-19, > 100 µM (inactive); in the assay with UACC-62, > 100 µM (inactive).
For `CC1CC(=O)C2CC(CO)=CCCC2C1(C)CC/C(=C/CO)CO` (configuration not stated), the GI50 with 786-0 is > 100 µM (inactive); in the assay on A549, > 100 µM (inactive); with CCRF-CEM, > 100 µM (inactive); in the assay with COLO 205, > 100 µM (inactive); with HOP-92, > 100 µM (inactive); in the assay on LOX IMVI it was > 10 µM (inactive). Further, the GI50 in the assay with OVCAR-3, in the assay on OVCAR-8, in the assay on RPMI-8226, in the assay on RXF 393, in the assay on SF-295 and with SK-OV-3 was > 100 µM (inactive) throughout. Further, the GI50 with TK-10 and in the assay with UACC-62 was > 100 µM (inactive) in each case.
Regarding `CC(C)C.C[N+](C)(C)C.OC(c1ccccc1)(C(F)(F)F)C(F)(F)F.OC(c1ccccc1)(C(F)(F)F)C(F)(F)F.[SiH3-]`, the GI50 was 2.97 µM (inactive) with 786-0; 4.79 µM (inactive) with A549; 6.49 µM (inactive) with COLO 205; < 0.01 µM (active) in the assay with HOP-92; 0.678 µM (active) with OVCAR-3; 7.59 µM (inactive) in the assay on OVCAR-4. For the same molecule, the GI50 was 9.23 µM (inactive) with OVCAR-8; 4.43 µM (inactive) in the assay with RPMI-8226; 3.18 µM (inactive) in the assay with RXF 393; 3.42 µM (inactive) in the assay with SF-295; 3.26 µM (inactive) in the assay on SNB-19; 12.6 µM (inactive) in the assay with TK-10.
